Experimental data taken from patent EP0015214B1, “Derivatives of substituted 2-benzoyl glycinanilides, their preparation and their use in anxiolytic medicaments” (PIERRE FABRE S.A., priority 1979, dated 1980).

What was measured:
[1] = Oral toxicity, lethal dose 50 (Miller and Tainter method); settings: in vivo, lethal dose 50 calculated by the Miller and Tainter method, read-out: Toxicité v. o. DE50
From the text: Les composés les plus actifs de la présente invention ont été soumis à des contrôles de toxicité.
La dose létale 50 et les activités pharmacologiques sont rapportées dans le Tableau (I).
La dose létale a été recherchée par voie orale et calculée selon la méthode de Miller et Tainter (Proc. Soc. Exper. Biol. Med., 1944,57,261).

[2] = system: souris mâles de souche swiss; experiment: Rotating rod test (Rota-Rod); assay type: in vivo; settings: Mus musculus, po, male Swiss mice, 10 per dose, effective if the mouse falls off the rod in less than two minutes, read-out: Rota-Rod v. o. DE50
From the text: On réalise cet essai sur des souris mâles de souche swiss. On place la souris sur une tige de bois d'un diamètre de 3 crn, tournant à raison de cinq tours par minute. On choisit les souris qui peuvent rester sur la tige pendant au moins trois minutes au cours d'essais successifs et on les rassemble par groupe de dix pour l'essai de chaque dose.
Si la souris tombe de la tige en moins de deux minutes, on considère le composé essayé comme efficace.
Les résultats sont exprimés en DE50 selon: N. W. Dunham et T. S. Miva (J. Amer. Pharm. Asso., 1957, 46,208).

[3] = system: souris mâles de souche swiss; experiment: Pentetrazol antagonism (protection against tonic convulsions); assay type: in vivo; settings: Mus musculus, po, 60 min before 125 mg/kg s.c. pentetrazol, male Swiss mice, observed for two hours, read-out: Pentétrazol v. o. DE50
Protocol: Ce test est réalisé sur un groupe de dix souris mâles de souche Swiss. Dans un délai de quinze minutes après l'injection sous-cutanée de 125 mg/kg de pentétrazol, les souris ont des convulsions toniques dont l'issue est fatale. Pour l'essai, on administre par voie orale les composés soixante minutes avant l'injection de pentétrazol. Les animaux sont observes pendant deux heures après administration du pentétrazol.
Les résultats sont exprimés par la dose efficace DE50 selon Goodmann et Coll. (J. Pharmacol. 108, 1953).

SMILES: CN(C(=O)CNC1CCCCC1)c1ccc(Br)cc1C(=O)c1ccccc1 [Br]
- LD50 [1]: > 1000 mg/kg
- ED50 [2]: 22 mg/kg

SMILES: CN(C(=O)CNC1CCCCC1)c1ccc(C#N)cc1C(=O)c1ccccc1 [Exemple 13, Chlorhydrate de N-méthyl N'-cyclohexyl (benzoyl-2' cyano-4') glycylanilide]
- LD50 [1]: > 1000 mg/kg
- ED50 [2]: 7 mg/kg
- ED50 [3]: 0.9 mg/kg

SMILES: CN(C(=O)CNC1CCCCC1)c1ccc(C(F)(F)F)cc1C(=O)c1ccccc1 [Exemple 12, N-méthyl N'-cyclohexyl (benzoyf-2' trifluorométhyl-4') glycylanilide]
- LD50 [1]: > 1000 mg/kg
- ED50 [2]: 8 mg/kg
- ED50 [3]: 1 mg/kg
